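Where inhibition never reached the appropriate level, the endpoint shown equals the highest concentration tested. Otherwise, values were interpolated linearly from a five-concentration, 48-hour dose response in 96-well plates. GI50 is the concentration that inhibits growth by half. Definition used: TGI = concentration required for complete inhibition of growth.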
Tests used:
Test in all cases: DTP human tumour cell line panel, 48 h
LOX IMVI melanoma = system: LOX IMVI melanoma
SR leukemia = system: SR leukemia
HCC-2998 colon = system: HCC-2998 colon
SF-268 CNS = system: SF-268 CNS
EKVX NSCLC = system: EKVX NSCLC
BT-549 breast = system: BT-549 breast
T-47D breast = system: T-47D breast
UACC-257 melanoma = system: UACC-257 melanoma
SK-MEL-28 melanoma = system: SK-MEL-28 melanoma
U251 CNS = system: U251 CNS
MCF7 breast = system: MCF7 breast
SK-MEL-5 melanoma = system: SK-MEL-5 melanoma
M14 melanoma = system: M14 melanoma
COLO 205 colon = system: COLO 205 colon
MALME-3M melanoma = system: MALME-3M melanoma
PC-3 prostate = system: PC-3 prostate
KM12 colon = system: KM12 colon
CCRF-CEM leukemia = system: CCRF-CEM leukemia
NCI-H460 lung = system: NCI-H460 lung
SK-MEL-2 melanoma = system: SK-MEL-2 melanoma
HT29 colon = system: HT29 colon
HOP-62 NSCLC = system: HOP-62 NSCLC
MOLT-4 leukemia = system: MOLT-4 leukemia
NCI-H23 lung = system: NCI-H23 lung
UO-31 renal = system: UO-31 renal
A549 NSCLC = system: A549 NSCLC
MDA-N = system: MDA-N
OVCAR-5 ovarian = system: OVCAR-5 ovarian
OVCAR-4 ovarian = system: OVCAR-4 ovarian
HL-60(TB) leukemia = system: HL-60(TB) leukemia
DU-145 prostate = system: DU-145 prostate
SK-OV-3 ovarian = system: SK-OV-3 ovarian
ACHN renal = system: ACHN renal
SF-539 CNS = system: SF-539 CNS
MDA-MB-435 = system: MDA-MB-435
SW-620 colon = system: SW-620 colon
NCI-H226 lung = system: NCI-H226 lung
IGROV1 ovarian = system: IGROV1 ovarian
SF-295 CNS = system: SF-295 CNS
SN12C renal = system: SN12C renal
HCT-116 colon = system: HCT-116 colon
RPMI-8226 leukemia = system: RPMI-8226 leukemia
TK-10 renal = system: TK-10 renal
HS 578T breast = system: HS 578T breast
CAKI-1 renal = system: CAKI-1 renal
786-0 renal = system: 786-0 renal
HOP-92 NSCLC = system: HOP-92 NSCLC
RXF 393 renal = system: RXF 393 renal
SNB-75 CNS = system: SNB-75 CNS
A498 renal = system: A498 renal
OVCAR-3 ovarian = system: OVCAR-3 ovarian
MDA-MB-231 breast = system: MDA-MB-231 breast
OVCAR-8 ovarian = system: OVCAR-8 ovarian
K-562 leukemia = system: K-562 leukemia
HCT-15 colon = system: HCT-15 colon
NCI-H522 lung = system: NCI-H522 lung
SNB-19 CNS = system: SNB-19 CNS
NCI/ADR-RES ovarian = system: NCI/ADR-RES ovarian
UACC-62 melanoma = system: UACC-62 melanoma

CN(C)c1ccc(/C=C/c2ccc(S(N)(=O)=O)cc2)cc1
GI50 (LOX IMVI melanoma): 18.7 µM
TGI (LOX IMVI melanoma): > 100 µM
GI50 (SR leukemia): 8.58 µM
TGI (SR leukemia): > 100 µM
TGI (HCC-2998 colon): > 100 µM
GI50 (SF-268 CNS): 7.16 µM
TGI (SF-268 CNS): > 100 µM
TGI (EKVX NSCLC): 52.5 µM
GI50 (BT-549 breast): 2.14 µM
TGI (BT-549 breast): 8.62 µM
TGI (T-47D breast): 80.4 µM
TGI (UACC-257 melanoma): > 100 µM
TGI (SK-MEL-28 melanoma): 28 µM
GI50 (U251 CNS): 11.2 µM
TGI (U251 CNS): 31.7 µM
TGI (MCF7 breast): > 100 µM
TGI (SK-MEL-5 melanoma): 25.8 µM
TGI (M14 melanoma): 35.9 µM
TGI (COLO 205 colon): 99.2 µM
TGI (MALME-3M melanoma): 37.6 µM
TGI (PC-3 prostate): 34.8 µM
GI50 (KM12 colon): 8.28 µM
TGI (KM12 colon): > 100 µM
GI50 (CCRF-CEM leukemia): 46 µM
TGI (CCRF-CEM leukemia): > 100 µM
TGI (NCI-H460 lung): > 100 µM
TGI (SK-MEL-2 melanoma): > 100 µM
GI50 (HT29 colon): 30.8 µM
TGI (HT29 colon): > 100 µM
TGI (HOP-62 NSCLC): 36.6 µM
GI50 (MOLT-4 leukemia): > 100 µM
TGI (MOLT-4 leukemia): > 100 µM
GI50 (NCI-H23 lung): 14.2 µM
TGI (NCI-H23 lung): 44 µM
TGI (UO-31 renal): 34.5 µM
GI50 (A549 NSCLC): 10.1 µM
TGI (A549 NSCLC): 26.2 µM
TGI (MDA-N): > 100 µM
TGI (OVCAR-5 ovarian): 53.6 µM
GI50 (OVCAR-4 ovarian): 3.35 µM
TGI (OVCAR-4 ovarian): 10.1 µM
GI50 (HL-60(TB) leukemia): > 100 µM
TGI (HL-60(TB) leukemia): > 100 µM
TGI (DU-145 prostate): 49.8 µM
TGI (SK-OV-3 ovarian): 31.4 µM
GI50 (ACHN renal): 13.6 µM
TGI (ACHN renal): 33.6 µM
GI50 (SF-539 CNS): 11.7 µM
TGI (SF-539 CNS): 25.6 µM
GI50 (MDA-MB-435): 7.63 µM
TGI (MDA-MB-435): 23.7 µM
TGI (SW-620 colon): 92.9 µM
GI50 (NCI-H226 lung): 12.1 µM
TGI (NCI-H226 lung): 33 µM
GI50 (IGROV1 ovarian): 13.4 µM
TGI (IGROV1 ovarian): 33.4 µM
TGI (SF-295 CNS): 46.8 µM
TGI (SN12C renal): 51.1 µM
TGI (HCT-116 colon): 67.2 µM
GI50 (RPMI-8226 leukemia): 11.6 µM
TGI (RPMI-8226 leukemia): > 100 µM
TGI (TK-10 renal): 39.8 µM
GI50 (HS 578T breast): 3.03 µM
TGI (HS 578T breast): 12.6 µM
GI50 (CAKI-1 renal): 50.3 µM
TGI (CAKI-1 renal): > 100 µM
TGI (786-0 renal): 35.4 µM
GI50 (HOP-92 NSCLC): 16.6 µM
TGI (HOP-92 NSCLC): 36 µM
TGI (RXF 393 renal): > 100 µM
TGI (SNB-75 CNS): 62.6 µM
TGI (A498 renal): 40.3 µM
TGI (OVCAR-3 ovarian): 49.8 µM
TGI (MDA-MB-231 breast): 34.3 µM
GI50 (OVCAR-8 ovarian): 4.95 µM
TGI (OVCAR-8 ovarian): 27.5 µM
GI50 (K-562 leukemia): > 100 µM
TGI (K-562 leukemia): > 100 µM
GI50 (HCT-15 colon): 17.1 µM
TGI (HCT-15 colon): 74.1 µM
GI50 (NCI-H522 lung): 6.88 µM
TGI (NCI-H522 lung): 25.6 µM
TGI (SNB-19 CNS): 44.9 µM
TGI (NCI/ADR-RES ovarian): 40 µM

Cc1nc(SCC(=O)Nc2ccc(Cl)cc2)c2sc(=S)n(-c3ccccc3)c2n1
TGI (LOX IMVI melanoma): > 10 µM
TGI (SR leukemia): > 10 µM
TGI (HCC-2998 colon): > 10 µM
TGI (SF-268 CNS): > 10 µM
TGI (UACC-62 melanoma): > 10 µM
TGI (EKVX NSCLC): > 10 µM
TGI (BT-549 breast): > 10 µM
TGI (T-47D breast): > 10 µM
TGI (UACC-257 melanoma): > 10 µM
TGI (SK-MEL-28 melanoma): > 10 µM
TGI (U251 CNS): > 10 µM
TGI (MCF7 breast): > 10 µM
TGI (SK-MEL-5 melanoma): > 10 µM
TGI (M14 melanoma): > 10 µM
TGI (COLO 205 colon): > 10 µM
TGI (MALME-3M melanoma): > 10 µM
TGI (PC-3 prostate): > 10 µM
TGI (KM12 colon): > 10 µM
TGI (CCRF-CEM leukemia): > 10 µM
TGI (NCI-H460 lung): > 10 µM
TGI (SK-MEL-2 melanoma): > 10 µM
TGI (HT29 colon): > 10 µM
TGI (HOP-62 NSCLC): > 10 µM
TGI (MOLT-4 leukemia): > 10 µM
TGI (NCI-H23 lung): > 10 µM
TGI (A549 NSCLC): > 10 µM
TGI (MDA-N): > 10 µM
TGI (OVCAR-5 ovarian): > 10 µM
TGI (OVCAR-4 ovarian): > 10 µM
TGI (HL-60(TB) leukemia): > 10 µM
TGI (DU-145 prostate): > 10 µM
TGI (SK-OV-3 ovarian): > 10 µM
TGI (ACHN renal): > 10 µM
TGI (SF-539 CNS): > 10 µM
TGI (MDA-MB-435): > 10 µM
TGI (SW-620 colon): > 10 µM
TGI (NCI-H226 lung): > 10 µM
TGI (IGROV1 ovarian): > 10 µM
TGI (SF-295 CNS): > 10 µM
TGI (SN12C renal): > 10 µM
TGI (HCT-116 colon): > 10 µM
TGI (RPMI-8226 leukemia): > 10 µM
TGI (TK-10 renal): > 10 µM
TGI (HS 578T breast): > 10 µM
TGI (CAKI-1 renal): > 10 µM
TGI (786-0 renal): > 10 µM
TGI (HOP-92 NSCLC): > 10 µM
TGI (RXF 393 renal): > 10 µM
TGI (SNB-75 CNS): > 10 µM
TGI (A498 renal): > 10 µM
TGI (OVCAR-3 ovarian): > 10 µM
TGI (MDA-MB-231 breast): > 10 µM
TGI (OVCAR-8 ovarian): > 10 µM
TGI (K-562 leukemia): > 10 µM
TGI (HCT-15 colon): > 10 µM
TGI (NCI-H522 lung): > 10 µM
TGI (SNB-19 CNS): > 10 µM
TGI (NCI/ADR-RES ovarian): > 10 µM

NC(N)=NCC1CCCCCCN1 (stereo not given)
TGI (SR leukemia): > 100 µM
TGI (HCC-2998 colon): > 100 µM
TGI (SF-268 CNS): > 100 µM
TGI (UACC-62 melanoma): > 100 µM
TGI (EKVX NSCLC): > 100 µM
TGI (BT-549 breast): > 100 µM
TGI (T-47D breast): > 100 µM
TGI (UACC-257 melanoma): > 100 µM
TGI (SK-MEL-28 melanoma): > 100 µM
TGI (U251 CNS): > 100 µM
TGI (MCF7 breast): > 100 µM
TGI (SK-MEL-5 melanoma): > 100 µM
TGI (M14 melanoma): > 100 µM
TGI (COLO 205 colon): > 100 µM
TGI (MALME-3M melanoma): > 100 µM
TGI (PC-3 prostate): > 100 µM
TGI (KM12 colon): > 100 µM
TGI (CCRF-CEM leukemia): > 100 µM
TGI (NCI-H460 lung): > 100 µM
TGI (SK-MEL-2 melanoma): > 100 µM
TGI (HT29 colon): > 100 µM
TGI (HOP-62 NSCLC): > 100 µM
TGI (MOLT-4 leukemia): > 100 µM
TGI (NCI-H23 lung): > 100 µM
TGI (UO-31 renal): > 100 µM
TGI (A549 NSCLC): > 100 µM
TGI (MDA-N): > 100 µM
TGI (OVCAR-5 ovarian): > 100 µM
TGI (OVCAR-4 ovarian): > 100 µM
TGI (HL-60(TB) leukemia): > 100 µM
TGI (DU-145 prostate): > 100 µM
TGI (SK-OV-3 ovarian): > 100 µM
TGI (ACHN renal): > 100 µM
TGI (SF-539 CNS): > 100 µM
TGI (MDA-MB-435): > 100 µM
TGI (SW-620 colon): > 100 µM
TGI (NCI-H226 lung): > 100 µM
TGI (IGROV1 ovarian): > 100 µM
TGI (SF-295 CNS): > 100 µM
TGI (SN12C renal): > 100 µM
TGI (HCT-116 colon): > 100 µM
TGI (RPMI-8226 leukemia): > 100 µM
TGI (TK-10 renal): > 100 µM
TGI (HS 578T breast): > 100 µM
TGI (CAKI-1 renal): > 100 µM
TGI (786-0 renal): > 100 µM
TGI (HOP-92 NSCLC): > 100 µM
TGI (RXF 393 renal): > 100 µM
TGI (SNB-75 CNS): > 100 µM
TGI (A498 renal): > 100 µM
TGI (OVCAR-3 ovarian): > 100 µM
TGI (MDA-MB-231 breast): > 100 µM
TGI (OVCAR-8 ovarian): > 100 µM
TGI (K-562 leukemia): > 100 µM
TGI (HCT-15 colon): > 100 µM
TGI (NCI-H522 lung): > 100 µM
TGI (SNB-19 CNS): > 100 µM
TGI (NCI/ADR-RES ovarian): > 100 µM

— PubChem BioAssay (NCI)
